Data: patent publication US3980707A, “Methylamino derivative of 2-ethylindandione-1,3 and the hydrochloride thereof” (priority 1973, dated 1976)
Structures can show the parent of a compound that is named as a salt. Blank lines part the entries; values can stand above or below the compound they belong to.

Key:
[1] = Solubility and hydrolysis in water; type: physicochemical; conditions: hydrochlorides
[2] = Anticonvulsive activity and toxicity, general statements; type: in vivo; conditions: compared with the conventional anticonvulsants
[3] = Extended every day administration / chronic toxicity; type: in vivo
[4] = tested on: seizures induced by an electroshock; assay: Anticonvulsive effect in electroshock (intraperitoneal); type: in vivo, white rats and white mice
Method: Anticonvulsive effect of Metindione in electroshock was studied on white rats and white mice on a comparison basis with the well known drug phenobarbital. Both preparations were administered by intraperitoneal injections. The results are summarized in Tabl. 1 (confidence limits are indicated in parentheses; P = 0.05).

[5] = Acute toxicity (LD50, Table 1); parameters: species or system white rats and white mice; conditions: in vivo, ip; confidence limits in parentheses, P = 0.05; second ED50 column of Table 1
electroshock = assay: Thirty-day electroshock tests (habituation); type: in vivo; conditions: white mice
conditioned reflexes = assay: Influence on rate of development of conditioned reflexes (learning); type: in vivo, white mice; conditions: for ET50 (medium time required for learning): confidence limits in parentheses, P=0.05
Description: The influence of Metindione and Phenobarbital on learning has been studied on white mice.
(confidence limits are put in parentheses; P=0.05).

- hydrolysis in water [1]: readily hydrolyzed in water
SMILES: CCC1(Nc2ccccc2)C(=O)c2ccccc2C1=O [2-aniline-2-ethylindandione-1,3 hydrochloride]

SMILES: CCC1(NC)C(=O)c2ccccc2C1=O [2-methylamino-2-ethylindandione-1,3 hydrochloride]
- anticonvulsant index [2]: high anticonvulsant index

SMILES: CCC1(NC)C(=O)c2ccccc2C1=O [Metindione, 2-methylamino-2-ethylindandione-1,3 hydrochloride]
- toxic effect ([3]; extended every day administration, doses 15 times higher than the therapeutical average): no toxic effect
- acute and chronic toxicity ([3]; in vivo): low acute and a low chronic toxicity
- morphological internal organic changes ([3]; in vivo): does not cause any morphological internal organic changes
- influence on normal development and growth of young animals ([3]; young animals): no adverse influence on normal development and growth of young animals
- ED50 ([4]; Rattus norvegicus, ip, electroshock, confidence limits in parentheses, P = 0.05): 3.6 mg/kg
- Protective Index (in ratio of LD50 /ED50) ([4]; electroshock, i.p., confidence limits in parentheses, P = 0.05): 115 (89+149)
- protective index higher than that of phenobarbital ([4]; in vivo): 14 times
- anticonvulsive effect stronger than that of phenobarbital ([4]; seizures induced by an electroshock, relative to phenobarbital): ~4 times
- LD50 [5]: 415 mg/kg
- necessity to increase initial dose / habit forming reaction (electroshock): no necessity to increase the initial dose
- ET50 (medium time required for learning) (conditioned reflexes; dose 1/2 of ED50 of anticonv. action): 2.4(2.1+2.6) day
- ET50 (medium time required for learning) (conditioned reflexes; dose 1 x ED50 of anticonv. action): 2.5(2.1+2.8) day
- ET50 (medium time required for learning) (conditioned reflexes; dose 2 x ED50 of anticonv. action): 2.0(1.7+2.3) day
- ET50 (medium time required for learning) (conditioned reflexes; dose 4 x ED50 of anticonv. action): 2.8(2.4+3.4) day
- influence on rate of developing conditioned reflexes (conditioned reflexes; mouse, in vivo): did not influence the rate of developing conditioned reflexes
